Key:
[1] = Solubility test: precipitation behavior in aqueous solution kept at room temperature; type: physicochemical; parameters: key: ◯: Not precipitated; Δ: Not remarkably precipitated but fine particles are generated; X: Remarkably precipitated; settings: dissolved at 50 to 60° C.
Description: Thereafter, the resulting solution was kept at room temperature to check a precipitation behavior over time. As Comparative Example, the same experiment was performed using phytospingosine.

[2] = tested on: Aspergillus niger (A. niger); experiment: Antibacterial test (MIC, double dilution in 96-well plate); type: cell-based; settings: P. ovale medium, cultured 32 to 48 hours
Description: (§1) As six representative microbes (fungi, and bacteria) causing skin diseases, each of Malassezia globosa, Malassezia restricta, Candia albicans (C. albicans), Aspergillus niger (A. niger), Enterococcus faecalis, and Brevundimonas vesicularis was seeded in a P. ovale medium, and cultured at 32° C. for 3 days while stirring. The resulting culture broth was diluted with P. ovale at a density of 1.0×10^7 CFU/mL, and the diluted culture broth was used as a test bacterial solution. […] (1) 200 μL of the sample solution prepared in (2) was added to the first row of a 96-well plate. 100 μL of P. ovale was added to the other wells. (2) After the first row of the mixtures were thoroughly mixed, 100 μL of each of the mixtures was taken, added to the second row, and then thoroughly mixed, and 100 μL of each of the mixtures was again taken, and added to the third row. Thereafter, this procedure was repeated to perform a double dilution. (3) After each of the microbes were cultured for 32 to 48 hours, a degree of suspension was used to determine whether the bacteria were growing. […] When it was difficult to determine whether the bacteria were growing due to the opaque mixed solution, the growth of the bacteria was observed under a microscope.

[3] = tested on: Brevundimonas vesicularis; experiment: as above; type: cell-based; settings: P. ovale medium, cultured 32 to 48 hours
Description: as §1

[4] = tested on: Candia albicans (C. albicans); experiment: as above; type: cell-based; settings: P. ovale medium, cultured 32 to 48 hours
Description: as §1

Enterococcus faecalis = experiment: as above; type: cell-based; settings: P. ovale medium, cultured 32 to 48 hours
Description: as §1

Malassezia globosa = experiment: as above; type: cell-based; settings: P. ovale medium, cultured 32 to 48 hours
Description: as §1

Malassezia restricta = experiment: as above; type: cell-based; settings: P. ovale medium, cultured 32 to 48 hours
Description: as §1

[5] = solvent isocetyl alcohol; cited from earlier work
[6] = 0.1% by weight in distilled water, 1 day
[7] = 0.1% by weight in distilled water, 7 days
[8] = 0.1% by weight in distilled water, 30 days
[9] = 1.0% by weight in distilled water, 1 day
[10] = 1.0% by weight in distilled water, 7 days
[11] = 1.0% by weight in distilled water, 30 days

Structure (SMILES) | precipitation behavior over time [1, 6] | precipitation behavior over time [1, 7] | precipitation behavior over time [1, 8] | precipitation behavior over time [1, 9] | precipitation behavior over time [1, 10] | precipitation behavior over time [1, 11] | minimum inhibitory concentration (MIC) [2] | minimum inhibitory concentration (MIC) [3] | minimum inhibitory concentration (MIC) [4] | minimum inhibitory concentration (MIC) (Enterococcus faecalis) | minimum inhibitory concentration (MIC) (Malassezia globosa) | minimum inhibitory concentration (MIC) (Malassezia restricta) | content dissolved in isocetyl alcohol [5]
CCCCCCCCCCCCCC[C@@H](O)[C@@H](O)[C@H](CO)NCC1(O)OC[C@@H](O)[C@@H](O[C@H]2O[C@H](CO)[C@@H](O)[C@H](O)[C@H]2O)[C@@H]1O (stereo partly shown) [Example 1] | ◯ | ◯ | ◯ | ◯ | ◯ | ◯ | 0.25 | <0.00097 | 0.0019 | 0.0039 | 0.001954 | 0.001954 | –
CCCCCCCCCCCCCC[C@@H](O)[C@@H](O)[C@@H](N)CO [Comparative Example, phytospingosine] | Δ | X | X | X | X | X | 0.5 | <0.00097 | 0.0312 | 0.062 | 0.001954 | 0.001954 | approximately 1 % by weight
CCCCCCCCCCCCCC[C@@H](O)[C@@H](O)[C@H](CO)NCC1(O)OC[C@@H](O)[C@@H](O[C@H]2O[C@H](CO)[C@H](O)[C@H](O)[C@H]2O)[C@@H]1O (stereo partly shown) [Example 2] | ◯ | ◯ | ◯ | ◯ | ◯ | ◯ | – | – | – | – | – | – | –

— US10172777B2, “Phytospingosine derivative and composition containing same” (AMOREPACIFIC CORPORATION, priority 2015, dated 2019)
